Results published in ChEMBL document CHEMBL3885861, “Open TG-GATES”.

Species on record: Rattus norvegicus
Assay: Open TG-GATES - Regimen: Daily Repeat
Assay type: toxicity, organism-based, Sprague-Dawley
Design: regimen Daily Repeat, gender Male, age 6 weeks
Details: in vivo, po, 1000 mg/kg, route gavage, dose level High; for APTT / Bas / Eos / Fbg / Hb / Ht / Lym / MCH / MCHC / MCV / Mono / Neu / PT / Plat / RBC / Ret / WBC: tissue Blood; for KIDNEY_L / KIDNEY_R / KIDNEY_TOTAL: tissue Kidney; for LIVER: tissue Liver; for A/G / ALP / ALT / AST / BUN / CRE / Ca / Cl / DBIL / GLC / IP / K / LDH / Na / PL / RALB / TBIL / TC / TG / TP / gamma-GTP: tissue Plasma

Compound: O=C(OC[C@H]1O[C@@H](OC(=O)c2cc(O)c(O)c(OC(=O)c3cc(O)c(O)c(O)c3)c2)[C@H](OC(=O)c2cc(O)c(O)c(OC(=O)c3cc(O)c(O)c(O)c3)c2)[C@@H](OC(=O)c2cc(O)c(O)c(OC(=O)c3cc(O)c(O)c(O)c3)c2)[C@@H]1OC(=O)c1cc(O)c(O)c(OC(=O)c2cc(O)c(O)c(O)c2)c1)c1cc(O)c(O)c(OC(=O)c2cc(O)c(O)c(O)c2)c1 [TANNIC ACID]
- TERMINAL_BW (72 h, time 3 day): 216.2 g
- APTT (72 h, time 3 day): 17 s
- Bas (72 h, time 3 day): 0%
- Eos (72 h, time 3 day): 1.4%
- Fbg (72 h, time 3 day): 234.6 mg/dL
- Hb (72 h, time 3 day): 13.2 g/dL
- Ht (72 h, time 3 day): 39.6%
- Lym (72 h, time 3 day): 67.8%
- MCH (72 h, time 3 day): 21.3 pg
- MCHC (72 h, time 3 day): 33.3%
- MCV (72 h, time 3 day): 63.8 fL
- Mono (72 h, time 3 day): 10.2%
- Neu (72 h, time 3 day): 20.6%
- PT (72 h, time 3 day): 11.6 s
- Plat (72 h, time 3 day): 110.8 x10_4/uL
- RBC (72 h, time 3 day): 621.4 x10_4/ul
- Ret (72 h, time 3 day): 7.9%
- WBC (72 h, time 3 day): 91.3 x10_2/uL
- KIDNEY_L (72 h, time 3 day): 1 g
- KIDNEY_R (72 h, time 3 day): 1 g
- KIDNEY_TOTAL (72 h, time 3 day): 1.9 g
- LIVER (72 h, time 3 day): 10.6 g
- A/G (72 h, time 3 day): 2
- ALP (72 h, time 3 day): 818.6 IU/L
- ALT (72 h, time 3 day): 42.6 IU/L
- AST (72 h, time 3 day): 65.6 IU/L
- BUN (72 h, time 3 day): 17.6 mg/dL
- CRE (72 h, time 3 day): 0.4 mg/dL
- Ca (72 h, time 3 day): 10.9 mg/dL
- Cl (72 h, time 3 day): 104.2 meq/L
- DBIL (72 h, time 3 day): 0.004 mg/dL
- GLC (72 h, time 3 day): 204.4 mg/dL
- IP (72 h, time 3 day): 7.9 mg/dL
- K (72 h, time 3 day): 4.6 meq/L
- LDH (72 h, time 3 day): 81.6 IU/L
- Na (72 h, time 3 day): 139.4 meq/L
- PL (72 h, time 3 day): 152.8 mg/dL
- RALB (72 h, time 3 day): 3.6 g/dL
- TBIL (72 h, time 3 day): 0.4 mg/dL
- TC (72 h, time 3 day): 85 mg/dL
- TG (72 h, time 3 day): 88.6 mg/dL
- TP (72 h, time 3 day): 5.5 g/dL
- gamma-GTP (72 h, time 3 day): 1.2 IU/L
- TERMINAL_BW ([…], time 7 day): 253.1 g
- TERMINAL_BW ([…], time 14 day): 291.2 g
- TERMINAL_BW ([…], time 28 day): 390.8 g
- APTT ([…], time 7 day): 17.3 s
- Bas ([…], time 7 day): 0%
- Eos ([…], time 7 day): 1%
- Fbg ([…], time 7 day): 227.4 mg/dL
- Hb ([…], time 7 day): 13.3 g/dL
- Ht ([…], time 7 day): 40%
- Lym ([…], time 7 day): 72%
- MCH ([…], time 7 day): 21.8 pg
- MCHC ([…], time 7 day): 33.3%
- MCV ([…], time 7 day): 65.5 fL
- Mono ([…], time 7 day): 6%
- Neu ([…], time 7 day): 21.2%
- PT ([…], time 7 day): 11.3 s
- Plat ([…], time 7 day): 121.1 x10_4/uL
- RBC ([…], time 7 day): 610.4 x10_4/ul
- Ret ([…], time 7 day): 7.4%
- WBC ([…], time 7 day): 103.9 x10_2/uL
- APTT ([…], time 14 day): 16.4 s
- Bas ([…], time 14 day): 0%
- Eos ([…], time 14 day): 1%
- Fbg ([…], time 14 day): 241.2 mg/dL
- Hb ([…], time 14 day): 14.5 g/dL
- Ht ([…], time 14 day): 43.2%
- Lym ([…], time 14 day): 74.8%
- MCH ([…], time 14 day): 20.5 pg
- MCHC ([…], time 14 day): 33.4%
- MCV ([…], time 14 day): 61.3 fL
- Mono ([…], time 14 day): 9.4%
- Neu ([…], time 14 day): 14.8%
- PT ([…], time 14 day): 11.5 s
- Plat ([…], time 14 day): 121.1 x10_4/uL
- RBC ([…], time 14 day): 705.6 x10_4/ul
- Ret ([…], time 14 day): 4.7%
- WBC ([…], time 14 day): 116.2 x10_2/uL
- APTT ([…], time 28 day): 16 s
- Bas ([…], time 28 day): 0%
- Eos ([…], time 28 day): 1.6%
- Fbg ([…], time 28 day): 225.2 mg/dL
- Hb ([…], time 28 day): 14.4 g/dL
- Ht ([…], time 28 day): 43%
- Lym ([…], time 28 day): 78.2%
- MCH ([…], time 28 day): 19.4 pg
- MCHC ([…], time 28 day): 33.5%
- MCV ([…], time 28 day): 57.9 fL
- Mono ([…], time 28 day): 7.6%
- Neu ([…], time 28 day): 12.6%
- PT ([…], time 28 day): 11.6 s
- Plat ([…], time 28 day): 118.3 x10_4/uL
- RBC ([…], time 28 day): 741.4 x10_4/ul
- Ret ([…], time 28 day): 3.1%
- WBC ([…], time 28 day): 130.6 x10_2/uL
- KIDNEY_L ([…], time 7 day): 1.1 g
- KIDNEY_R ([…], time 7 day): 1.1 g
- KIDNEY_TOTAL ([…], time 7 day): 2.2 g
- KIDNEY_L ([…], time 14 day): 1.1 g
- KIDNEY_R ([…], time 14 day): 1.1 g
- KIDNEY_TOTAL ([…], time 14 day): 2.3 g
- KIDNEY_L ([…], time 28 day): 1.4 g
- KIDNEY_R ([…], time 28 day): 1.4 g
- KIDNEY_TOTAL ([…], time 28 day): 2.8 g
- LIVER ([…], time 7 day): 12.1 g
- LIVER ([…], time 14 day): 12.9 g
- LIVER ([…], time 28 day): 16.8 g
- A/G ([…], time 7 day): 1.7
- ALP ([…], time 7 day): 897.4 IU/L
- ALT ([…], time 7 day): 34.2 IU/L
- AST ([…], time 7 day): 60 IU/L
- BUN ([…], time 7 day): 16.2 mg/dL
- CRE ([…], time 7 day): 0.5 mg/dL
- Ca ([…], time 7 day): 10.8 mg/dL
- Cl ([…], time 7 day): 103.2 meq/L
- DBIL ([…], time 7 day): 0.012 mg/dL
- GLC ([…], time 7 day): 200.4 mg/dL
- IP ([…], time 7 day): 8 mg/dL
- K ([…], time 7 day): 4.6 meq/L
- LDH ([…], time 7 day): 93.4 IU/L
- Na ([…], time 7 day): 136.6 meq/L
- PL ([…], time 7 day): 125.4 mg/dL
- RALB ([…], time 7 day): 3.7 g/dL
- TBIL ([…], time 7 day): 0.4 mg/dL
- TC ([…], time 7 day): 62.6 mg/dL
- TG ([…], time 7 day): 91 mg/dL
- TP ([…], time 7 day): 5.9 g/dL
- gamma-GTP ([…], time 7 day): 1 IU/L
- A/G ([…], time 14 day): 1.9
- ALP ([…], time 14 day): 720.4 IU/L
- ALT ([…], time 14 day): 35.4 IU/L
- AST ([…], time 14 day): 58.6 IU/L
- BUN ([…], time 14 day): 17.8 mg/dL
- CRE ([…], time 14 day): 0.5 mg/dL
- Ca ([…], time 14 day): 10.7 mg/dL
- Cl ([…], time 14 day): 104.6 meq/L
- DBIL ([…], time 14 day): 0.024 mg/dL
- GLC ([…], time 14 day): 204.2 mg/dL
- IP ([…], time 14 day): 8.3 mg/dL
- K ([…], time 14 day): 4.6 meq/L
- LDH ([…], time 14 day): 87.6 IU/L
- Na ([…], time 14 day): 140.4 meq/L
- PL ([…], time 14 day): 145.2 mg/dL
- RALB ([…], time 14 day): 3.8 g/dL
- TBIL ([…], time 14 day): 0.4 mg/dL
- TC ([…], time 14 day): 70.4 mg/dL
- TG ([…], time 14 day): 115.8 mg/dL
- TP ([…], time 14 day): 5.8 g/dL
- gamma-GTP ([…], time 14 day): 0.8 IU/L
- A/G ([…], time 28 day): 1.8
- ALP ([…], time 28 day): 573 IU/L
- ALT ([…], time 28 day): 31.6 IU/L
- AST ([…], time 28 day): 54 IU/L
- BUN ([…], time 28 day): 20.4 mg/dL
- CRE ([…], time 28 day): 0.5 mg/dL
- Ca ([…], time 28 day): 10.7 mg/dL
- Cl ([…], time 28 day): 105.8 meq/L
- DBIL ([…], time 28 day): 0.006 mg/dL
- GLC ([…], time 28 day): 199.2 mg/dL
- IP ([…], time 28 day): 7.8 mg/dL
- K ([…], time 28 day): 4.5 meq/L
- LDH ([…], time 28 day): 87.8 IU/L
- Na ([…], time 28 day): 139 meq/L
- PL ([…], time 28 day): 152.6 mg/dL
- RALB ([…], time 28 day): 3.8 g/dL
- TBIL ([…], time 28 day): 0.4 mg/dL
- TC ([…], time 28 day): 73.4 mg/dL
- TG ([…], time 28 day): 139.4 mg/dL
- TP ([…], time 28 day): 6 g/dL
- gamma-GTP ([…], time 28 day): 1 IU/L
